Assay results taken from the OligoGym collection.
HELM strings list units from the 5' end as sugar, base in round brackets, then linkage (d deoxyribose, r ribose, m 2'-O-methyl, p phosphodiester). Strings are as the collection lists them; they lack the last nucleoside at the 3' end of the tested compound. [moe] = 2'-O-(2-methoxyethyl) (MOE); [sp] = phosphorothioate linkage; [m5C] = 5-methylcytosine

These substances were tested against ATXN3 (assay: mouse, dose not given). Conditions: ASO.
“RNA1{[moe](G)[sp].[moe](G)p.[moe](T)p.[moe]([m5C])p.[moe](A)p.[moe](G)p.d(T)[sp].d(T)[sp].d(T)[sp].d([m5C])[sp].d([m5C])[sp].d(T)[sp].d(A)[sp].d(A)[sp].d(T)[sp].d(T)[sp].[moe](T)p.[moe](T)[sp].[moe](A)}$$$$ (last 3' nucleoside missing)” gave a 3 h FOB score of 1 score 0-7.
“RNA1{[moe](G)[sp].[moe]([m5C])p.[moe](T)p.[moe]([m5C])p.[moe](A)p.[moe](T)p.d(T)[sp].d(T)[sp].d(A)[sp].d(T)[sp].d(T)[sp].d([m5C])[sp].d(T)[sp].d([m5C])[sp].d(A)[sp].d(A)[sp].[moe](G)p.[moe](T)[sp].[moe](A)}$$$$ (last 3' nucleoside missing)” showed a 3 h FOB score of 0 score 0-7.
“RNA1{[moe]([m5C])[sp].[moe]([m5C])p.[moe]([m5C])p.[moe](A)p.[moe](A)[sp].d(T)[sp].d(A)[sp].d(A)[sp].d(T)[sp].d([m5C])[sp].d(T)[sp].d(G)[sp].d(A)[sp].d([m5C])[sp].d(A)[sp].[moe](T)p.[moe]([m5C])p.[moe]([m5C])[sp].[moe](T)}$$$$ (last 3' nucleoside missing)” showed a 3 h FOB score of 1.5 score 0-7.
With “RNA1{[moe](G)[sp].[moe](G)p.[moe]([m5C])p.[moe](A)p.[moe]([m5C])p.d(A)[sp].d(T)[sp].d(T)[sp].d(T)[sp].d(T)[sp].d(T)[sp].d(T)[sp].d(A)[sp].d(T)[sp].d(A)[sp].[moe](G)p.[moe](A)p.[moe](G)[sp].[moe](T)}$$$$ (last 3' nucleoside missing)” the 3 h FOB score was 1.25 score 0-7.
“RNA1{[moe](G)[sp].[moe](G)p.[moe](T)p.[moe](T)p.[moe](T)[sp].d(T)[sp].d([m5C])[sp].d(T)[sp].d([m5C])[sp].d(A)[sp].d(T)[sp].d(T)[sp].d(T)[sp].d(T)[sp].d(T)[sp].[moe](A)p.[moe](T)p.[moe](A)[sp].[moe](T)}$$$$ (last 3' nucleoside missing)” was tested, and the 3 h FOB score was 2.25 score 0-7.
“RNA1{[moe](G)[sp].[moe]([m5C])p.[moe]([m5C])[sp].[moe](A)[sp].[moe](A)[sp].d(A)[sp].d(A)[sp].d(T)[sp].d(A)[sp].d([m5C])[sp].d(T)[sp].d(A)[sp].d(A)[sp].d([m5C])[sp].d(A)[sp].[moe](T)[sp].[moe]([m5C])p.[moe](A)[sp].[moe](G)}$$$$ (last 3' nucleoside missing)” showed a 3 h FOB score of 2.5 score 0-7.
Work on “RNA1{[moe](T)[sp].[moe](A)p.[moe](A)p.[moe](T)p.[moe](T)[sp].d([m5C])[sp].d(T)[sp].d(T)[sp].d(G)[sp].d([m5C])[sp].d(T)[sp].d(T)[sp].d([m5C])[sp].d(A)[sp].d(A)[sp].[moe]([m5C])p.[moe]([m5C])p.[moe](A)[sp].[moe](T)}$$$$ (last 3' nucleoside missing)” yielded a 3 h FOB score of 1.38 score 0-7.
For “RNA1{[moe](G)[sp].[moe]([m5C])p.[moe]([m5C])p.[moe](A)p.[moe](A)p.d(T)[sp].d(A)[sp].d(T)[sp].d(T)[sp].d(T)[sp].d(A)[sp].d(T)[sp].d(A)[sp].d(G)[sp].d(G)[sp].[moe](T)p.[moe](G)p.[moe]([m5C])[sp].[moe](T)}$$$$ (last 3' nucleoside missing)”, the 3 h FOB score was 1.5 score 0-7.
Work on “RNA1{[moe](A)[sp].[moe]([m5C])p.[moe]([m5C])p.[moe](A)p.[moe](T)[sp].d([m5C])[sp].d(T)[sp].d(T)[sp].d(T)[sp].d(G)[sp].d(A)[sp].d([m5C])[sp].d(A)[sp].d(A)[sp].d(G)[sp].[moe]([m5C])p.[moe](T)p.[moe](A)[sp].[moe](T)}$$$$ (last 3' nucleoside missing)” yielded a 3 h FOB score of 2.75 score 0-7.
Work on “RNA1{[moe](T)[sp].[moe](G)p.[moe]([m5C])p.[moe](T)p.[moe]([m5C])p.[moe](A)p.d(T)[sp].d(T)[sp].d(T)[sp].d(A)[sp].d(T)[sp].d(T)[sp].d([m5C])[sp].d(T)[sp].d([m5C])[sp].d(A)[sp].[moe](A)p.[moe](G)[sp].[moe](T)}$$$$ (last 3' nucleoside missing)” yielded a 3 h FOB score of 0 score 0-7.
